Results from patent publication US20250223259A1, “PROTEASE INHIBITORS FOR TREATING OR PREVENTING CORONAVIRUS INFECTION” (Merck Sharp & Dohme LLC, priority 2022, published 2025).
pIC50: −log10 of the molar value.

These molecules were tested against SARS2 coronavirus 3CL protease (Severe acute respiratory syndrome coronavirus 2 (2019-nCoV) (SARS-CoV-2), UniProt P0DTD1) (assay: SARS2 Coronavirus 3CL Protease Assay (FRET)). Conditions: SARS2 3CLPro FRET assay; 5 nM enzyme, 30 min pre-incubation with compound, 15 uM peptide substrate, 4 h room temperature.
Format: biochemical
With COC(=O)N[C@H](C(=O)N1CCC(O)(C(F)(F)F)C[C@H]1C(=O)N[C@@H](CCC(C)(F)F)C(=O)C(=O)NC1CC1)C(C)(C)C (single isomer, unassigned) [Example 58, Methyl ((S)-1-((2S, 4(R or S))-2-(((S)-1-(cyclopropylamino)-6,6-difluoro-1,2-dioxoheptan-3-yl)carbamoyl)-4-hydroxy-4-(trifluoromethyl)piperidin-1-yl)-3,3-dimethyl-1-oxobutan-2-yl)carbamate] the pIC50 was 6.46.
In the case of COC(=O)N[C@H](C(=O)N1CC(C2COC2)C[C@H]1C(=O)N[C@@H](CCC(C)(F)F)C(=O)C(=O)NC1CC1)C(C)(C)C (single isomer, unassigned) [Example 57, Methyl ((S)-1-((2S, 4(R or S))-2-(((S)-1-(cyclopropylamino)-6,6-difluoro-1,2-dioxoheptan-3-yl)carbamoyl)-4-(oxetan-3-yl)pyrrolidin-1-yl)-3,3-dimethyl-1-oxobutan-2-yl)carbamate], the pIC50 was 6.52.
COC(=O)N[C@H](C(=O)N1CCC(C)(C)CC1C(=O)N[C@@H](CCC(C)(F)F)C(=O)C(=O)NC1CC1)C(C)(C)C (single isomer, unassigned) [Example 37, Methyl ((S)-1-((R or S)-(2-(((S)-1-(cyclopropylamino)-6,6-difluoro-1,2-dioxoheptan-3-yl)carbamoyl)-4,4-dimethylpiperidin-1-yl)-3,3-dimethyl-1-oxobutan-2-yl)carbamate] showed a pIC50 of 8.04.
Molecule CNC(=O)C(=O)[C@H](CCC(C)(F)F)NC(=O)[C@@H]1CC2(CCCCC2)CN1C(=O)[C@@H](NC(=O)OC)C(C)(C)C [Example 62, Methyl ((S)-1-((S)-3-(((S)-6,6-difluoro-1-(methylamino)-1,2-dioxoheptan-3-yl)carbamoyl)-2-azaspiro[4.5]decan-2-yl)-3,3-dimethyl-1-oxobutan-2-yl)carbamate] has a pIC50 of 8.06.
Molecule COC(=O)N[C@H](C(=O)N1CCC2CC2[C@H]1C(=O)N[C@@H](CCC(C)(F)F)C(=O)C(=O)NC1CC1)C(C)(C)C (single isomer, unassigned) [Example 83, methyl ((S)-1-((1R,2S,6R or 1R,2S,6S)-2-(((S)-1-(cyclopropylamino)-6,6-difluoro-1,2-dioxoheptan-3-yl)carbamoyl)-3-azabicyclo[4.1.0]heptan-3-yl)-3,3-dimethyl-1-oxobutan-2-yl)carbamate] has a pIC50 of 7.08.
COC(=O)N[C@H](C(=O)N1CCCC(C)C1C(=O)N[C@@H](CCC(C)(F)F)C(=O)C(=O)NC1CC1)C(C)(C)C (single isomer, unassigned) [Example 49, Methyl ((S)-1-((2(R or S),3(R or S))-2-(((S)-1-(cyclopropylamino)-6,6-difluoro-1,2-dioxoheptan-3-yl)carbamoyl)-3-methylpiperidin-1-yl)-3,3-dimethyl-1-oxobutan-2-yl)carbamate] was tested, and the pIC50 was 7.22.
Work on CNC(=O)C(=O)[C@H](CCC(C)(F)F)NC(=O)C1CCCC(C)N1C(=O)[C@@H](NC(=O)OC)C(C)(C)C (single isomer, unassigned) [Example 110, methyl ((S)-1-((2S,6S or 2R,6R)-2-(((S)-6,6-difluoro-1-(methylamino)-1,2-dioxoheptan-3-yl)carbamoyl)-6-methylpiperidin-1-yl)-3,3-dimethyl-1-oxobutan-2-yl)carbamate] yielded a pIC50 of 7.21.
With COC(=O)N[C@H](C(=O)N1CC2(CCCCC2)C[C@H]1C(=O)N[C@@H](CCC(C)(F)F)C(=O)C(=O)NC(C)C)C(C)(C)C [Example 13, Methyl ((S)-1-((S)-3-(((S)-6,6-difluoro-1-(isopropylamino)-1,2-dioxoheptan-3-yl)carbamoyl)-2-azaspiro[4.5]decan-2-yl)-3,3-dimethyl-1-oxobutan-2-yl)carbamate] the pIC50 was 7.31.
COC(=O)N[C@H](C(=O)N1CCC(OC(F)F)CC1C(=O)N[C@@H](CCC(C)(F)F)C(=O)C(=O)NC1CC1)C(C)(C)C (single isomer, unassigned) [Example 109, methyl ((S)-1-((2R,4R or 2S,4S)-2-(((S)-1-(cyclopropylamino)-6,6-difluoro-1,2-dioxoheptan-3-yl)carbamoyl)-4-(difluoromethoxy)piperidin-1-yl)-3,3-dimethyl-1-oxobutan-2-yl)carbamate] showed a pIC50 of 7.30.
For CNC(=O)C(=O)[C@H](CCC(C)(F)F)NC(=O)[C@@H]1[C@H]2CCC[C@H]2CN1C(=O)[C@H](CC(F)(F)F)NC(=O)OC [Example 87, methyl ((S)-1-((1S,3aR,6aS)-1-(((S)-6,6-difluoro-1-(methylamino)-1,2-dioxoheptan-3-yl)carbamoyl)hexahydrocyclopenta[c]pyrrol-2(1H)-yl)-4,4,4-trifluoro-1-oxobutan-2-yl)carbamate], the pIC50 was 8.15.
For CNC(=O)C(=O)[C@H](CCC(C)(F)F)NC(=O)[C@@H]1[C@H]2CCC(F)(F)[C@H]2CN1C(=O)[C@@H](NC(=O)OC)C(C)(C)C [Example 35, Methyl ((S)-1-((1S,3aR,6aS)-1-(((S)-6,6-difluoro-1-(methylamino)-1,2-dioxoheptan-3-yl)carbamoyl)-4,4-difluorohexahydrocyclopenta[c]pyrrol-2(1H)-yl)-3,3-dimethyl-1-oxobutan-2-yl)carbamate], the pIC50 was 8.09.
COC(=O)N[C@H](C(=O)N1CC(C)(C)C[C@H]1C(=O)N[C@@H](CCC(C)(F)F)C(=O)C(=O)NC1CC1)C(C)(C)C [Example 76, Methyl ((S)-1-((S)-2-(((S)-1-(cyclopropylamino)-6,6-difluoro-1,2-dioxoheptan-3-yl)carbamoyl)-4,4-dimethylpyrrolidin-1-yl)-3,3-dimethyl-1-oxobutan-2-yl)carbamate] gave a pIC50 of 7.06.
Molecule COC(=O)N[C@H](C(=O)N1CC2(CCCCC2)C[C@H]1C(=O)N[C@@H](CCC(C)(F)F)C(=O)C(=O)NCc1ccccc1)C(C)(C)C [Example 7, Methyl ((S)-1-((S)-3-(((S)-1-(benzylamino)-6,6-difluoro-1,2-dioxoheptan-3-yl)carbamoyl)-2-azaspiro[4.5]decan-2-yl)-3,3-dimethyl-1-oxobutan-2-yl)carbamate] has a pIC50 of 7.96.
COC(=O)N[C@H](C(=O)N1CC2(CCC2)CC1C(=O)N[C@@H](CCC(C)(F)F)C(=O)C(=O)NC1CC1)C(C)(C)C (single isomer, unassigned) [Example 47, Methyl ((S)-1-(R or S)-7-(((S)-1-(cyclopropylamino)-6,6-difluoro-1,2-dioxoheptan-3-yl)carbamoyl)-6-azaspiro[3.4]octan-6-yl)-3,3-dimethyl-1-oxobutan-2-yl)carbamate] was tested, and the pIC50 was 7.42.
CNC(=O)C(=O)[C@H](CCC(C)(F)F)NC(=O)[C@@H]1[C@H]2CCC[C@H]2CN1C(=O)C(NC(=O)OC)C1(C(F)(F)F)CC1 (stereo partly drawn) [Example 88, methyl (2-((1S,3aR,6aS)-1-(((S)-6,6-difluoro-1-(methylamino)-1,2-dioxoheptan-3-yl)carbamoyl)hexahydrocyclopenta[c]pyrrol-2(1H)-yl)-2-oxo-1-(1-(trifluoromethyl)cyclopropy 1)ethyl)carbamate] showed a pIC50 of 7.68.
Molecule COC(=O)N[C@H](C(=O)N1CC2(CCCCC2)C[C@H]1C(=O)N[C@@H](CCC(C)(F)F)C(=O)C(=O)NC1CC1)C(F)(F)F [Example 46, Methyl ((R)-3-((S)-3-(((S)-1-(cyclopropylamino)-6,6-difluoro-1,2-dioxoheptan-3-yl)carbamoyl)-2-azaspiro[4.5]decan-2-yl)-1,1,1-trifluoro-3-oxopropan-2-yl)carbamate] has a pIC50 of 7.47.
Work on COC(=O)N[C@H](C(=O)N1CCC2(CC2)C[C@H]1C(=O)N[C@@H](CCC(C)(F)F)C(=O)C(N)=O)C(C)(C)C [Example 20, Methyl ((S)-1-((S)-5-(((S)-1-amino-6,6-difluoro-1,2-dioxoheptan-3-yl)carbamoyl)-6-azaspiro[2.5]octan-6-yl)-3,3-dimethyl-1-oxobutan-2-yl)carbamate] yielded a pIC50 of 8.13.
In the case of COC(=O)N[C@H](C(=O)N1C[C@H]2[C@@H](C1C(=O)N[C@@H](CCC(C)(F)F)C(=O)C(=O)NC1CC1)C2(Cl)Cl)C(C)(C)C (single isomer, unassigned) [Example 106, methyl ((S)-1-((1S,2(S or R),5R)-6,6-dichloro-2-(((S)-1-(cyclopropylamino)-6,6-difluoro-1,2-dioxoheptan-3-yl)carbamoyl)-3-azabicyclo[3.1.0]hexan-3-yl)-3,3-dimethyl-1-oxobutan-2-yl)carbamate], the pIC50 was 8.10.
Molecule CCC1CCN(C(=O)[C@@H](NC(=O)OC)C(C)(C)C)C1C(=O)N[C@@H](CCC(C)(F)F)C(=O)C(=O)NC1CC1 (single isomer, unassigned) [Example 72, Methyl ((S)-1-((2(R or S),3(R or S))-2-(((S)-1-(cyclopropylamino)-6,6-difluoro-1,2-dioxoheptan-3-yl)carbamoyl)-3-ethylpyrrolidin-1-yl)-3,3-dimethyl-1-oxobutan-2-yl)carbamate] has a pIC50 of 7.32.
Work on COC(=O)N[C@H](C(=O)N1CCC(C)C1C(=O)N[C@@H](CCC(C)(F)F)C(=O)C(=O)NC1CC1)C(C)(C)C (single isomer, unassigned) [Example 51, Methyl ((S)-1-((2(R or S),3(R or S))-2-(((S)-1-(cyclopropylamino)-6,6-difluoro-1,2-dioxoheptan-3-yl)carbamoyl)-3-methylpyrrolidin-1-yl)-3,3-dimethyl-1-oxobutan-2-yl)carbamate] yielded a pIC50 of 7.01.
Work on CNC(=O)C(=O)[C@H](CCC(C)(F)F)NC(=O)[C@@H]1CC2(CN1C(=O)[C@@H](NC(=O)OC)C(C)(C)C)CC(F)(F)C2 [Example 53, Methyl ((S)-1-((S)-7-(((S)-6,6-difluoro-1-(methylamino)-1,2-dioxoheptan-3-yl)carbamoyl)-2,2-difluoro-6-azaspiro[3.4]octan-6-yl)-3,3-dimethyl-1-oxobutan-2-yl)carbamate] yielded a pIC50 of 6.71.
COC(=O)N[C@H](C(=O)N1CCC(F)(F)CC1C(=O)N[C@@H](CCC(C)(F)F)C(=O)C(=O)NC1CC1)C(C)(C)C (single isomer, unassigned) [Example 45, Methyl ((S)-1-(R or S)-(2-(((S)-1-(cyclopropylamino)-6,6-difluoro-1,2-dioxoheptan-3-yl)carbamoyl)-4,4-difluoropiperidin-1-yl)-3,3-dimethyl-1-oxobutan-2-yl)carbamate] gave a pIC50 of 7.47.
